Values of other authors in patent US11603570B2, “Methods for the detection and treatment of leukemias that are responsive to DOT1L inhibition” (MEMORIAL SLOAN KETTERING CANCER CENTER, priority 2013, dated 2023).
Where two headings read alike, the source gives them in different places.

Assays:
other methyltransferases = conditions: in words; FIG. 1B; cited from earlier work
[1] = system: MLL-rearranged leukemia xenograft; conditions: cited from earlier work
[2] = rats; cited from earlier work
[3] = dogs; cited from earlier work
[4] = cited from earlier work
[5] = mice or rats, at a dose efficacious against MLL-translocated leukemia cells; cited from earlier work
[6] = system: MLL-translocated leukemia cells; conditions: infusion, including continuous infusion; cited from earlier work

For `CC(C)N(C[C@H]1O[C@@H](n2cnc3c(N)ncnc32)[C@H](O)[C@@H]1O)C1CC(CCc2nc3cc(C(C)(C)C)ccc3[nH]2)C1` (stereo partly drawn) [EPZ005676, (2R,3R,4S,5R)-2-(6-amino-9H-purin-9-yl)-5-((((1r,3S)-3-(2-(5-(tert-butyl)-1H-benzo[d]imidazol-2-yl)ethyl)cyclobutyl)(isopropyl)amino)methyl)tetrahydrofuran-3,4-diol], the “specificity for DOT1L / H3K79me as compared to other methyl transferases” value (other methyltransferases) is given as “highly selective”, the “tumor response at the highest dose” value ([1]; continuous intravenous infusion for 21 days, highest dose) is given as “complete tumor regressions” and the anti-tumor activity ([1]; continuous intravenous infusion for 21 days) is given as “dose-dependent anti-tumor activity”. For the same molecule, the “no regrowth after the cessation of treatment” value ([1]; highest dose) was “up to 32 days”, the “effective pharmacokinetic half-life in systemic circulation” value [2] was 15 min and the “effective pharmacokinetic half-life in systemic circulation” value [3] was 90 min. The “solubility in aqueous solution” value [4] was “soluble”, the hematopoietic toxicity [5] was “did not show hematopoietic toxicity” and the “growth of MLL-translocated leukemia cells in mice” value [6] was “suppresses the growth”.
